ChEMBL document CHEMBL5241062, “Recent advances of dual FGFR inhibitors as a novel therapy for cancer” (Eur J Med Chem, 2021)

Key:
[1] = target: T1, Vascular endothelial growth factor receptor 2 (Homo sapiens, UniProt P35968); assay: Inhibition of N-terminal 6-His tagged recombinant VEGFR2 Kinase domain (unknown origin) expressed in baculovirus expression system incubated for 30 mins in the presence of [33p]-ATP by scintillation counting analysis
[2] = target: T2, Fibroblast growth factor receptor 1 (Homo sapiens, UniProt P11362); assay: Inhibition of N-terminal 6-His tagged recombinant FGFR1 Kinase domain (unknown origin) expressed in baculovirus expression system incubated for 30 mins in the presence of [33p]-ATP by scintillation counting analysis
T2 sequence (P11362 whole entry, the tested form may be a part): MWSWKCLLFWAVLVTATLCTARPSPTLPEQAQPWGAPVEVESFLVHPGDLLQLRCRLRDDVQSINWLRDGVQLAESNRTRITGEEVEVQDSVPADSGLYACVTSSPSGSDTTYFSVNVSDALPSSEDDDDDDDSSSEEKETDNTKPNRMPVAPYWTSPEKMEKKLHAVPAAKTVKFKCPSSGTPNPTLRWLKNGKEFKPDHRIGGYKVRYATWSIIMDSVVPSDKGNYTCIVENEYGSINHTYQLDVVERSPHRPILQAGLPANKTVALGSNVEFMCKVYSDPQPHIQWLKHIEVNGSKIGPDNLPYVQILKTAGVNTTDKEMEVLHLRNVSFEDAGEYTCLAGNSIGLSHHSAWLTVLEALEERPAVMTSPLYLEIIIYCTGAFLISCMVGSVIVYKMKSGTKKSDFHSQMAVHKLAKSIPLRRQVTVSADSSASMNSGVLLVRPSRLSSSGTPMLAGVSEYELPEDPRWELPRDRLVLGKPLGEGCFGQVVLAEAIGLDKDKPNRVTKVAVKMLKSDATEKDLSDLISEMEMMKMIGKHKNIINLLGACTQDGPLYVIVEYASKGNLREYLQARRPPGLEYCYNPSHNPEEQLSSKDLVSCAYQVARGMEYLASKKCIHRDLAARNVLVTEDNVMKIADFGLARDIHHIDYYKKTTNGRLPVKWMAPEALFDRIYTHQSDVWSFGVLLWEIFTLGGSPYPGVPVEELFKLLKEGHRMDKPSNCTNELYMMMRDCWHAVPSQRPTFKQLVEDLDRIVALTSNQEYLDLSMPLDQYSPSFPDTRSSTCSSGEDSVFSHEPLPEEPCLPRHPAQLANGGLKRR

[3] = target: T3, Platelet-derived growth factor receptor beta (Homo sapiens, UniProt P09619); assay: Inhibition of N-terminal 6-His tagged recombinant PDGFRbeta Kinase domain (unknown origin) expressed in baculovirus expression system incubated for 30 mins in the presence of [33p]-ATP by scintillation counting analysis
[4] = target: Vascular endothelial growth factor receptor 3 (Homo sapiens, UniProt P35916); assay: Inhibition of recombinant VEGFR3 (unknown origin) in the presence of [p33]-ATP
[5] = target: T4, Fibroblast growth factor receptor substrate 2 (Homo sapiens, UniProt Q8WU20); assay: Inhibition of FRS2 phosphorylation at Tyr196 residue in human SNU-16 cells incubated for 20 mins by electrochemiluminescence method; assay type: cell-based
T4 sequence (Q8WU20 whole entry): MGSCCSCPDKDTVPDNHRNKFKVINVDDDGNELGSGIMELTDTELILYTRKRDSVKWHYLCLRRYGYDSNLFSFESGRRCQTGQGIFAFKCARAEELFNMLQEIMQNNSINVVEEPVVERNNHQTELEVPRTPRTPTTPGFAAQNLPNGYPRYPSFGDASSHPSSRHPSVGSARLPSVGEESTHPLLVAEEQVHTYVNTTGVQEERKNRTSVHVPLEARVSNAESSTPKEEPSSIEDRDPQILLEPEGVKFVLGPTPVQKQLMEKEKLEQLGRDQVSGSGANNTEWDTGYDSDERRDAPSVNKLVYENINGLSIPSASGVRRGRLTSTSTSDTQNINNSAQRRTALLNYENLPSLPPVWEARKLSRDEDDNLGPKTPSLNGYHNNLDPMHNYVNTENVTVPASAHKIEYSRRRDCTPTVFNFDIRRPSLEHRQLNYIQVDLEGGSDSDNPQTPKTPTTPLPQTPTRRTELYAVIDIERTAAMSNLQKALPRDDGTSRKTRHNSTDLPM

[6] = target: T1, Vascular endothelial growth factor receptor 2; assay: Inhibition of recombinant VEGFR2 (unknown origin) in the presence of [p33]-ATP
[7] = target: T5, Fibroblast growth factor receptor 4 (Homo sapiens, UniProt P22455); assay: Inhibition of recombinant FGFR4 (unknown origin) in the presence of [p33]-ATP
T5 sequence (P22455 whole entry): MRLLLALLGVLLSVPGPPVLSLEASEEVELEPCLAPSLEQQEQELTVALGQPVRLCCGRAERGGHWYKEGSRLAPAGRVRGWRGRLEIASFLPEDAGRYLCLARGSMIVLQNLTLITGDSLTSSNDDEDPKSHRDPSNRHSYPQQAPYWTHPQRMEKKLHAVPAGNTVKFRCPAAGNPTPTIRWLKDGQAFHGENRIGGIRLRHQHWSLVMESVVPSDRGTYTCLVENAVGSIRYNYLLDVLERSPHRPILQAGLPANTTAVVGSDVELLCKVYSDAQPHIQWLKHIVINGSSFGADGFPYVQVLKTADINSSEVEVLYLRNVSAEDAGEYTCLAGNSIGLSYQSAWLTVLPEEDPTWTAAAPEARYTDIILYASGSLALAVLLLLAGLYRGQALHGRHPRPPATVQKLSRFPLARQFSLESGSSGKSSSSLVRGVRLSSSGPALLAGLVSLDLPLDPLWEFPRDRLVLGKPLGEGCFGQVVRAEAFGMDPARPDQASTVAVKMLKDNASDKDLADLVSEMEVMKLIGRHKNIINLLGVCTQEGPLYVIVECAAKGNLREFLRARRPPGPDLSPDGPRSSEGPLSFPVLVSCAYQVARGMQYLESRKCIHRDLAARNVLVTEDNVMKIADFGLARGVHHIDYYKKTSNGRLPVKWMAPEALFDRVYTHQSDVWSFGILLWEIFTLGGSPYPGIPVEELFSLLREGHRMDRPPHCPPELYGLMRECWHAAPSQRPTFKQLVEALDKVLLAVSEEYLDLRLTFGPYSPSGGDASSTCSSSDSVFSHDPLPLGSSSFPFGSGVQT

[8] = target: T2, Fibroblast growth factor receptor 1; assay: Inhibition of recombinant FGFR1 (unknown origin) in the presence of [p33]-ATP
[9] = target: T6, Fibroblast growth factor receptor 2 (Homo sapiens, UniProt P21802); assay: Inhibition of recombinant FGFR2 (unknown origin) in the presence of [p33]-ATP
T6 sequence (P21802 whole entry): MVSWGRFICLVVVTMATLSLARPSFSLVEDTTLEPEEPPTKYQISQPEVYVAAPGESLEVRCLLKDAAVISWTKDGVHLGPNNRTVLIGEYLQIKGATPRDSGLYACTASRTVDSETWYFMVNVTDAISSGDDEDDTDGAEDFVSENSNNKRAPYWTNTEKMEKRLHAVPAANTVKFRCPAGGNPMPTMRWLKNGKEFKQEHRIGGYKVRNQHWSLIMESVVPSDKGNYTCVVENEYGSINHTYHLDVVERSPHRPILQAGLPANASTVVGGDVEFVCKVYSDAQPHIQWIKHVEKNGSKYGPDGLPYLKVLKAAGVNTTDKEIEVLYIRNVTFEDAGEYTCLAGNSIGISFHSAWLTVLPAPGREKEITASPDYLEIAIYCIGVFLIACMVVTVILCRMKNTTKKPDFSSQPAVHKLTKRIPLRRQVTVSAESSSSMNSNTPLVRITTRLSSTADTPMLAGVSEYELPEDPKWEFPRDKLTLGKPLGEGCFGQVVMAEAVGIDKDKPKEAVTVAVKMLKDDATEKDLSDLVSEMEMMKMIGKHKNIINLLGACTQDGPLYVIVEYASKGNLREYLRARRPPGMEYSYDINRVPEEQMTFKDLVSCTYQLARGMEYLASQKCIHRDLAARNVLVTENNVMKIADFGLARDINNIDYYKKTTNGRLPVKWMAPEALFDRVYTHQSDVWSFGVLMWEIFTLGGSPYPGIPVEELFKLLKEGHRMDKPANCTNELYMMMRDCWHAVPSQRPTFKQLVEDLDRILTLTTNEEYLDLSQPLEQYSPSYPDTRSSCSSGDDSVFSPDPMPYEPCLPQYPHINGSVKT

[10] = target: T7, Vascular endothelial growth factor receptor 1 (Homo sapiens, UniProt P17948); assay: Inhibition of recombinant VEGFR1 (unknown origin) in the presence of [p33]-ATP
[11] = target: T8, Fibroblast growth factor receptor 3 (Homo sapiens, UniProt P22607); assay: Inhibition of recombinant FGFR3 (unknown origin) in the presence of [p33]-ATP
T8 sequence (P22607 whole entry): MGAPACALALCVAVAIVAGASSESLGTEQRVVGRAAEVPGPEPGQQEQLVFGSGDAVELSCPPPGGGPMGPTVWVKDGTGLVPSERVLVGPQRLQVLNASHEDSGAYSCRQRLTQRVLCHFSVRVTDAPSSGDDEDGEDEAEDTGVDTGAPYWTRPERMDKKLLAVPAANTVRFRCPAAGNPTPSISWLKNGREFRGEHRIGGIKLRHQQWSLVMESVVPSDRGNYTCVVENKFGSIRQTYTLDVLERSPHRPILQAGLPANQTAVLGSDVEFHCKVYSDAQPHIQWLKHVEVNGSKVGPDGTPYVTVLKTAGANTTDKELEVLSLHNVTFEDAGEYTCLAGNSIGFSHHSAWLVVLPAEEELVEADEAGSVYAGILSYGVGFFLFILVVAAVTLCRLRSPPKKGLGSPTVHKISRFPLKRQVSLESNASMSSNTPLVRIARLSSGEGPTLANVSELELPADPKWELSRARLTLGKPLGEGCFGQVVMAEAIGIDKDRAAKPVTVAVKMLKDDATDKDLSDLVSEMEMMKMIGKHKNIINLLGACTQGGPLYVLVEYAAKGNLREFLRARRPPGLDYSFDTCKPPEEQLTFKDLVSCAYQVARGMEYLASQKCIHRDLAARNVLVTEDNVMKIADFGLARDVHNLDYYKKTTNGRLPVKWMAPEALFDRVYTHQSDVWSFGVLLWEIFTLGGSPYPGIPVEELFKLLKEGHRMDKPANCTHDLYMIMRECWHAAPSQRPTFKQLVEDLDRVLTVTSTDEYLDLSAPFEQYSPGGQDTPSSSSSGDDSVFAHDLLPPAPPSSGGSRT

[12] = tested on: RT-4; assay: Antitumor activity against human RT-4 cells xenografted in mouse assessed as tumor growth inhibition at 20 mg/kg/day, po administered for 21 days relative to control; assay type: functional; conditions: RT-4, 504 h, time 21 day, read-out: TGI
[13] = target: T4, Fibroblast growth factor receptor substrate 2; assay: Inhibition of FRS2 phosphorylation at Tyr196 residue in human RT-4 cells incubated for 20 mins by electrochemiluminescence method; assay type: cell-based
[14] = tested on: RT-4; assay: Antitumor activity against human RT-4 cells xenografted in mouse assessed as tumor growth inhibition at 40 mg/kg/day, po administered for 21 days relative to control; assay type: functional; conditions: RT-4, 504 h, time 21 day, read-out: TGI
[15] = target: T4, Fibroblast growth factor receptor substrate 2; assay: Inhibition of FRS2 phosphorylation at Tyr196 residue in human NCI-H1581 cells incubated for 20 mins by electrochemiluminescence method; assay type: cell-based
[16] = target: T9, Epidermal growth factor receptor (Homo sapiens, UniProt P00533); assay: Inhibition of EGFR (unknown origin) using biotin as substrate incubated for 1 hrs in the presence of ATP by HTRF assay
[17] = target: T5, Fibroblast growth factor receptor 4; assay: Inhibition of FGFR4 (unknown origin) using biotin as substrate incubated for 1 hrs in the presence of ATP by HTRF assay
[18] = target: T8, Fibroblast growth factor receptor 3; assay: Inhibition of FGFR3 (unknown origin) by Z'-LYTE Kinase assay
[19] = target: T9, Epidermal growth factor receptor; assay: Inhibition of EGFR (unknown origin) by Z'-LYTE Kinase assay
[20] = target: T5, Fibroblast growth factor receptor 4; assay: Inhibition of FGFR4 (unknown origin) by Z'-LYTE Kinase assay
[21] = target: T6, Fibroblast growth factor receptor 2; assay: Inhibition of FGFR2 (unknown origin) by Z'-LYTE Kinase assay
[22] = target: T2, Fibroblast growth factor receptor 1; assay: Inhibition of FGFR1 (unknown origin) by Z'-LYTE Kinase assay
[23] = target: T6, Fibroblast growth factor receptor 2; assay: Inhibition of recombinant FGFR2 (unknown origin) incubated for 60 mins by ELISA analysis
[24] = target: T7, Vascular endothelial growth factor receptor 1; assay: Inhibition of recombinant VEGFR1 (unknown origin) incubated for 60 mins by ELISA analysis
[25] = target: T2, Fibroblast growth factor receptor 1; assay: Inhibition of recombinant FGFR1 (unknown origin) incubated for 60 mins by ELISA analysis
[26] = target: T8, Fibroblast growth factor receptor 3; assay: Inhibition of recombinant FGFR3 (unknown origin) incubated for 60 mins by ELISA analysis
[27] = target: T1, Vascular endothelial growth factor receptor 2; assay: Inhibition of recombinant VEGFR2 (unknown origin) incubated for 60 mins by ELISA analysis
[28] = target: T3, Platelet-derived growth factor receptor beta; assay: Inhibition of recombinant PDGFRbeta (unknown origin) incubated for 60 mins by ELISA analysis
[29] = target: Platelet-derived growth factor receptor alpha (Homo sapiens, UniProt P16234); assay: Inhibition of PDGFRalpha (unknown origin) incubated for […] in the presence of ATP by Z'-LYTE kinase assay
[30] = target: T10, Receptor-type tyrosine-protein kinase FLT3 (Homo sapiens, UniProt P36888); assay: Inhibition of His tagged recombinant human FLT3 (564 to 958 residues) expressed in baculovirus expression system incubated for […] in the presence of ATP by Z'-LYTE kinase assay
T10 sequence (P36888 whole entry): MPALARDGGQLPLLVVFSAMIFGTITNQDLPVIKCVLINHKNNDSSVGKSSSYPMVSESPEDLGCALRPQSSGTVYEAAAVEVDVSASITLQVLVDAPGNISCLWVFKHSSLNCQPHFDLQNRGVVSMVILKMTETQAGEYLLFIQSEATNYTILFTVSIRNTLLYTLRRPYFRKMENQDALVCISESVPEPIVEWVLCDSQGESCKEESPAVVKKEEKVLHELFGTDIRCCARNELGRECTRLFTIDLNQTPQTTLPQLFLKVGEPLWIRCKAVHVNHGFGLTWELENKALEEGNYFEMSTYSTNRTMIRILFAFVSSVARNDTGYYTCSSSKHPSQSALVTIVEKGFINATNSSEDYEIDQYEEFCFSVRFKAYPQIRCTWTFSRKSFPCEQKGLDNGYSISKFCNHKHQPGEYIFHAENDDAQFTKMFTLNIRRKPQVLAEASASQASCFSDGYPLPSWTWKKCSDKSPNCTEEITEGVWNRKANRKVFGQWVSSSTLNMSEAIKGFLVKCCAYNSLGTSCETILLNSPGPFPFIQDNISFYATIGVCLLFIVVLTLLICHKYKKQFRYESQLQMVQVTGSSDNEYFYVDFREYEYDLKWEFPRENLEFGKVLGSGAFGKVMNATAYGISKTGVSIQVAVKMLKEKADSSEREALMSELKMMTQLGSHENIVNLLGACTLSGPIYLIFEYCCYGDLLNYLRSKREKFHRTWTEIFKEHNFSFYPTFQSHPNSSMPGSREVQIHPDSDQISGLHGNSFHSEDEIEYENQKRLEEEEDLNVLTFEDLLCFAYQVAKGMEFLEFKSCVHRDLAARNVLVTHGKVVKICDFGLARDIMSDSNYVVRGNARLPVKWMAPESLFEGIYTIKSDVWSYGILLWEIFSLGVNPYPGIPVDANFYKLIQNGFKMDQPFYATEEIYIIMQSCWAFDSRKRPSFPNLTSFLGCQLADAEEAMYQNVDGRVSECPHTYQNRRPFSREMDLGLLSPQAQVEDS

[31] = tested on: NCI-H1581; assay: Antitumor activity against human NCI-H1581 cells assessed as tumor growth inhibition at 50 mg/kg, po administered for 14 days relative to control; assay type: functional; conditions: NCI-H1581, 336 h, time 14 day, read-out: TGI

T1 sequence (P35968 whole entry, the tested form may be a part): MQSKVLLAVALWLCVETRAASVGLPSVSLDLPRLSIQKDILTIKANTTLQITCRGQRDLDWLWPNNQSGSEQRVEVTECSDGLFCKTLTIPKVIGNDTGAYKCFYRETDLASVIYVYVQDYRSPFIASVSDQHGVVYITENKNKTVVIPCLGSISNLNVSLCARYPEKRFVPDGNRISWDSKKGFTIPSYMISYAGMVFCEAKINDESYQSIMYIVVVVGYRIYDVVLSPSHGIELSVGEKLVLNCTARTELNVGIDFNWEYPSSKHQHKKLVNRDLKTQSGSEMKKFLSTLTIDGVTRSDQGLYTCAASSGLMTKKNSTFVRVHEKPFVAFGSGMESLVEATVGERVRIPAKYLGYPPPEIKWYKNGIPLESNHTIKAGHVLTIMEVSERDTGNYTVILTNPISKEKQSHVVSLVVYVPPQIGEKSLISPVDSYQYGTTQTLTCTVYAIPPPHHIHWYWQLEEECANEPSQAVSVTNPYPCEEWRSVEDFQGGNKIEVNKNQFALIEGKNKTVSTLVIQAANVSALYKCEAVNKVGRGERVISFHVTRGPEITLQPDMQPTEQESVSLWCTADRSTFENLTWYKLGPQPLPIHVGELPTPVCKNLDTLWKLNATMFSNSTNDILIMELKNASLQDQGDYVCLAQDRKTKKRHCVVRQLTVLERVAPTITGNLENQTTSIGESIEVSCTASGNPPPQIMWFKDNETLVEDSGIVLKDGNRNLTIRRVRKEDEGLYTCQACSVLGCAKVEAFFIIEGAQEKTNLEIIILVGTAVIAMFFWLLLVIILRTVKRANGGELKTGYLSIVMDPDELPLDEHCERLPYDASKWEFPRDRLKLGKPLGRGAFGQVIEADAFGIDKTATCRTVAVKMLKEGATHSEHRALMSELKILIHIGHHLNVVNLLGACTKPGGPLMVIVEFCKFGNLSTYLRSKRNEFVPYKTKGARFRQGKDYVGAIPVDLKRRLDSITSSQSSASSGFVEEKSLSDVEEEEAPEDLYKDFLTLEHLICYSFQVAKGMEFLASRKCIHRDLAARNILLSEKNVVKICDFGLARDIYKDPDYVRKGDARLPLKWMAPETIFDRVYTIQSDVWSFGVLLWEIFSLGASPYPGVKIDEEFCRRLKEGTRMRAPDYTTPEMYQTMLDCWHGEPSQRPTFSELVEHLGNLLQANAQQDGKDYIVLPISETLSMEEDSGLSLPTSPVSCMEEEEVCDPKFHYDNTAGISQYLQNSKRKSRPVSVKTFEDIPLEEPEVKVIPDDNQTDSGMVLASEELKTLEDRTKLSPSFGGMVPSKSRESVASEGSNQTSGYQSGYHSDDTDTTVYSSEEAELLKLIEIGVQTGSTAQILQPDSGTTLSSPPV

`O=C(O)CCc1c(/C=C2\C(=O)Nc3ccc(F)cc32)[nH]c2c1C(=O)CCC2` gave an IC50 [1] of 25 nM, an IC50 [2] of 260 nM and an IC50 [3] of 42 nM.
For `Cn1cc(-c2ccc3c(c2)ncn3-c2cc(NS(=O)(=O)C3CC3)cc(-c3ccc(F)cc3F)c2)cn1`, the IC50 [4] was 5 nM, the IC50 [5] was 59 nM and the IC50 [6] was 9 nM. The IC50 [7] was 35 nM, the IC50 [8] was 11 nM and the IC50 [9] was 16 nM. It also gave an IC50 [10] of 26 nM, an IC50 [11] of 6 nM and an inhibition in vivo at 20 mg/kg/day [12] of 37%. It also gave an IC50 [13] of 89 nM, an inhibition in vivo at 40 mg/kg/day [14] of 92% and an IC50 [15] of 93 nM.
Compound `COc1cc2ncnc(Oc3ccc(NC(=O)Nc4cccc(C(F)(F)F)c4)c4ccccc34)c2cc1OC` has an IC50 [16] of 86.2 nM and an IC50 [17] of 83.9 nM.
With `C=CC(=O)Nc1ccc(CN(C(=O)Nc2c(Cl)c(OC)cc(OC)c2Cl)c2cc(Nc3ccc(N4CCN(C)CC4)cc3)ncn2)cc1` the IC50 [18] was 31 nM, the IC50 [19] was 43 nM and the IC50 [20] was 35 nM. The IC50 [21] was 21 nM and the IC50 [22] was 3 nM.
Work on `CNC(=O)c1cccc2cc(Oc3ccnc(NC(=O)c4ccc(N5CCN(CCO)CC5)cc4)c3)ccc12` yielded an IC50 [23] of 1.9 nM, an IC50 [24] of 5.6 nM and an IC50 [25] of 1.8 nM. It also gave an IC50 [26] of 6.9 nM, an IC50 [27] of 1.2 nM and an IC50 [28] of 7.8 nM.
`Cc1ccc(C(=O)Nc2ccc(CN3CCN(C)CC3)c(C(F)(F)F)c2)cc1C#Cc1cnc2[nH]ncc2c1` [OLVEREMBATINIB] showed an IC50 [29] of 2.08 nM and an IC50 [30] of 1.33 nM.
Work on `COc1cc(OC)c(Cl)c(-c2ccc3c(NC(=O)c4ccc(N5CCNC(C)(C)C5)cc4)n[nH]c3n2)c1Cl` [SEGIGRATINIB] yielded an inhibition in vivo at 50 mg/kg [31] of 96.4%.
